Data from BindingDB's records for doi:10.1002/cbic.200900537 (University of Cambridge, 2009).
pKd: −log10 of the molar value.

Target: T1, Pantothenate synthetase (Mycobacterium tuberculosis (strain ATCC 25618 / H37Rv), UniProt P9WIL5)
T1 sequence (P9WIL5 whole entry): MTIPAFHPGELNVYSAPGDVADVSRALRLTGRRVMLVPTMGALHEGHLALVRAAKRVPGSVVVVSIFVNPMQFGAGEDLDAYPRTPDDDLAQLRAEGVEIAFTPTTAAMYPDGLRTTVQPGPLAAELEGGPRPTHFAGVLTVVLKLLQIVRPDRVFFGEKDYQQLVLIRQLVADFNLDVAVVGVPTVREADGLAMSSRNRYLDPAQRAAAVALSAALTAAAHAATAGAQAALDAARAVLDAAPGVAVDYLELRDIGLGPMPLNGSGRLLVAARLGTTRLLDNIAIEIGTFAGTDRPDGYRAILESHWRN
Assay: Binding Assay
Settings: pH 7.6; 25 °C
Protocol: The dissociation constants and enthalpies was determined by isothermal titration calorimety.

Nc1ncnc2c1ncn2[C@@H]1O[C@H](CSSCC(O)CO)[C@@H](O)[C@H]1O (stereo partly specified) [5'-Deoxy-5'-thiodenosine scaffold, 14c]
pKd: 3.24
